From patent publication US20130274281A1, “METHODS OF TREATING METASTATIC BREAST CANCER WITH 4-IODO-3-NITROBENZAMIDE AND IRINOTECAN” (BiPar Sciences, Inc., priority 2010, published 2013)

Legend:
advanced solid tumors [1] = format: in vivo, human
Method: Phase 1: 4-iodo-3-nitrobenzamide is administered intravenously twice weekly (days 1 and 4 of each week) for 3 weeks, followed by a one week 4-iodo-3-nitrobenzamide treatment-free period per one 28-day cycle. Cycle one (day 1 through day 28) is defined as the Safety Phase of the study during which DLTs is assessed and the MTD is determined. The remainder of the study is termed the Maintenance Phase. A subject may participate in this study until he/she experiences a drug intolerance or disease progression. […] For non-measurable disease, best medical practices are used to determine disease progression.
In cohort A (starting dose), a single subject receives 4-iodo-3-nitrobenzamide twice weekly at a dose level of 0.5 mg/kg based on weight measured at screening. If this subject experiences a grade 2 toxicity or higher, then 3 additional subjects would be enrolled in this cohort (only 2 additional subjects would be enrolled in this cohort if the initial subject receives at least 80% of the planned cycle 1 doses). If no additional subjects dosed in this cohort experience a DLT, then dose escalation would occur as below. If no DLT occurs in the initial subject, dose escalation would occur as below. The safety review group has the ability to recommend dose escalation (opening of a new cohort), without expansion with additional subjects, for cases of grade 2 toxicity seen in a single subject that are deemed not to be clinically relevant and/or study treatment-related. Dose Escalation Prior to Grade 2 Toxicity (Potential Cohorts B-J): Until a subject experiences a grade 2 toxicity or higher, one subject would be initially enrolled in all subsequent cohorts at planned 100% dose level increases, with possible cohort expansion as described for cohort A. Safety data are reviewed after 6 doses of 4-iodo-3-nitrobenzamide, and a decision to escalate to the next cohort would be made if no subject experiences a grade 2 toxicity or higher. […]

advanced solid tumors [2] = assay: 4-iodo-3-nitrobenzamide in combination with cytotoxic chemotherapeutic agents, safety and best response; format: in vivo, human
Method: 42 subjects (advanced solid tumors) were treated with 4-iodo-3-nitrobenzamide in combination with cytotoxic chemotherapeutics agents (topotecan, temozolomide, gemcitabine, or carboplatin/taxol) at 4-iodo-3-nitrobenzamide doses of 1.1, 2.0, 2.8, 4.0 and 5.6 mg/kg.

[3] = tested on: panel of 63 other kinases, including native c-Ab1; conditions: background statement; cited from earlier work
[4] = tested on: cells not expressing Bcr-Ab1; conditions: background statement; cited from earlier work
Bcr-ab1 = conditions: background statement; read-out: IC50, inhibition of Bcr-ab1 phosphorylation; cited from earlier work

SMILES: NC(=O)c1ccc(I)c([N+](=O)[O-])c1 [4-iodo-3-nitrobenzamide]
- best response measured to date (advanced solid tumors [1]; 24 subjects, monotherapy 0.5-8.0 mg/kg): stable disease present through at least cycle 2 of the study for six subjects
- dose limiting toxicities (DLTs) (advanced solid tumors [1]; in vivo): no dose limiting toxicities (DLTs) were observed at any dose level
- cycles of treatment completed with continued stable disease (advanced solid tumors [1]; one subject, monotherapy): 9 cycles
- tolerability (advanced solid tumors [2]; 42 subjects, advanced solid tumors, with topotecan, temozolomide, gemcitabine or carboplatin/taxol, BA 1.1, 2.0, 2.8, 4.0 and 5.6 mg/kg, preliminary safety data): well tolerated at all dose levels tested
- relation of serious adverse events to study drug (advanced solid tumors [2]; 42 subjects, combination with cytotoxic agents, judged by study investigators): deemed not related to study drug
- SAEs attributed to drug (advanced solid tumors [2]; either study (monotherapy, 24 subjects; combination with cytotoxic agents, 42 subjects)): no SAEs attributed to 4-iodo-3-nitrobenzamide in either study
- additional toxicities when combined with standard cytotoxic chemotherapy (advanced solid tumors [2]; safety data of both studies): would not cause any additional toxicities
- potentiation of known toxicities of standard chemotherapeutic agents (advanced solid tumors [2]; safety data of both studies): no evidence that 4-iodo-3-nitrobenzamide would potentiate any known toxicities

SMILES: NC(=O)c1cccc(-c2cc(Nc3ccc(OC(F)(F)F)cc3)ncn2)c1 [GNF-2]
- inhibition of a panel of 63 other kinases, including native c-Ab1 [3]: does not inhibit
- toxicity towards cells not expressing Bcr-Ab1 [4]: complete lack of toxicity
- IC50 (Bcr-ab1): 267 nM
